Experimental data: patent publication US8129552B2, “Phospholipids with unsaturated alkyl and acyl chains” (Max-Planck-Gesellschaft zur Forderung der Wissenschaften …, priority 1998, dated 2012)
Where two headings read alike, the source gives them in different places.

Legend:
[1] = tested on: tumor; test: Antitumor activity of alkylphosphocholines: T/C and median tumor volume after therapy (Example 5); format: in vivo; details: for T/C (quotient of the median tumor volume in the treated and the control group × 100): evaluation after therapy for 5 weeks
Description: Comparison of the Known Antitumor Active Ingredient Erucylphosphocholine with Active Ingredients of the Invention
Comparison of a compound not of the invention (erucylphosphocholine) with two active ingredients of the invention is shown in Table 1.

[2] = tested on: complex organisms; details: in vivo; cited from earlier work
[3] = tested on: cell culture; details: cited from earlier work
[4] = oral administration; cited from earlier work
[5] = rats; cited from earlier work
[6] = tested on: tumor; details: evaluation after therapy for 5 weeks, cited from earlier work

Compound	Median tumor volume, End of therapy ([1]; dose 42 μmol/kg)	Median tumor volume, 2 weeks later ([1]; dose 84 μmol/kg)	Median tumor volume, End of therapy ([1]; dose 84 μmol/kg)	Median tumor volume, 2 weeks later ([1]; dose 170 μmol/kg)	Median tumor volume, End of therapy ([1]; dose 170 μmol/kg)	Median tumor volume, 2 weeks later ([1]; dose 42 μmol/kg)	Median tumor volume, 2 weeks later ([1]; dose 256 μmol/kg)	Median tumor volume, End of therapy ([1]; dose 256 μmol/kg)	further results
CCCCC/C=C\CCCCCCCCCCCCCCCOP(=O)([O-])OCC[N+](C)(C)C [(Z)-16-Docosenyl-1-phosphocholine, (Z)-16-docosenyl-1-phosphocholine]	26.9 cm^3	7.6 cm^3	2.5 cm^3	0.4 cm^3	0.2 cm^3				
C=CCCCCCCCC/C=C\CCCCCCCCCCOP(=O)([O-])OCC[N+](C)(C)C [(Z)-11,21-Docosadienyl-1-PC, (Z)-11,21-docosadienyl-1-phosphocholine]	1.5 cm^3	2.9 cm^3	0.9 cm^3	0.5 cm^3	0.4 cm^3	2.5 cm^3			T/C (quotient of the median tumor volume in the treated and the control group × 100) ([1]; weekly dose 42 μmol/kg): 8%; T/C (quotient of the median tumor volume in the treated and the control group × 100) ([1]; weekly dose 170 μmol/kg): 2%
CCCCCCCCCCCCCCCCCCOCC(COP(=O)([O-])OCC[N+](C)(C)C)OC (racemic) [ET18-OCH3, 1-O-octadecyl-2-O-methyl-rac-glycero-3-phosphocholine]									activity in complex organisms [2]: virtually inactive; antineoplastic activity in cell-culture experiments [3]: excellent antineoplastic activity
CCCCCCC/C=C\CCCC/C=C\CCCCCOP(=O)([O-])OCC[N+](C)(C)C [(Z,Z)-6,12-Eicosadienyl-1-PC, (Z,Z)-6,12-eicosadienyl-1-phosphocholine]	10 cm^3	13.9 cm^3	3.2 cm^3	1.9 cm^3	0.4 cm^3	13.9 cm^3	0 cm^3	0 cm^3	
CCCCCCCCCCCCCCCCOP(=O)([O-])OCC[N+](C)(C)C [HePC, hexadecylphosphocholine]									toxicity in clinical studies [4]: toxicities in the gastrointestinal tract; adverse effect of direct intravenous administration of a solution [5]: thrombophlebitis
CCCCC/C=C\CCCC/C=C\CCCCCCCCCOP(=O)([O-])OCC[N+](C)(C)C [(Z,Z)-10,16-Docosadienyl-1-PC, (Z,Z)-10,16-docosadienyl-1-phosphocholine]	7.5 cm^3	0.6 cm^3	0.6 cm^3	0.7 cm^3	0.5 cm^3	11.4 cm^3			
CCCCCCCC/C=C\CCCCCCCCCCCCOP(=O)([O-])OCC[N+](C)(C)C [Erucylphosphocholine, erucylphosphocholine]									T/C (quotient of the median tumor volume in the treated and the control group × 100) ([6]; weekly dose 90 μmol/kg): 31%; T/C (quotient of the median tumor volume in the treated and the control group × 100) ([6]; weekly dose 180 μmol/kg): 6%; T/C (quotient of the median tumor volume in the treated and the control group × 100) ([6]; weekly dose 360 μmol/kg): <0.1%
CCCCCCCC/C=C\CCCCCCCCCCCOP(=O)([O-])OCC[N+](C)(C)C [(Z)-12-Heneicosenyl-1-phosphocholine, (Z)-12-heneicosenyl-1-phosphocholine]	3.4 cm^3	1.2 cm^3	0.3 cm^3	0.1 cm^3	0.1 cm^3	4.5 cm^3	0.8 cm^3	0.2 cm^3	
CCCCCCCCCCC/C=C\CCCCCCCCCOP(=O)([O-])OCC[N+](C)(C)C [(Z)-10-Docosenyl-1-PC, (Z)-10-docosenyl-1-phosphocholine]	4.0 cm^3	3.4 cm^3	1.2 cm^3	0.2 cm^3	0.2 cm^3	4.5 cm^3	0.2 cm^3	0.1 cm^3	T/C (quotient of the median tumor volume in the treated and the control group × 100) ([1]; weekly dose 42 μmol/kg): 9%; T/C (quotient of the median tumor volume in the treated and the control group × 100) ([1]; weekly dose 170 μmol/kg): 0.5%; T/C (quotient of the median tumor volume in the treated and the control group × 100) ([1]; weekly dose 256 μmol/kg): 0.2%
